Values of other authors as cited in PMC12444507 (ACS Omega, 2025).

Tested on: nirmatrelvir-resistant E166 V-carrying SARS-CoV-2^E166V
Conditions: cited from earlier work

SMILES: CC(C)(C)[C@H](NC(=O)C(F)(F)F)C(=O)N1C[C@H]2[C@@H]([C@H]1C(=O)N[C@@H](C[C@@H]1CCNC1=O)C(=O)c1nc3cc(F)ccc3s1)C2(C)C [TKB272 (8)]
- antiviral activity against SARS-CoV-2^E166V: substantial antiviral activity
